Assay results published in ChEMBL document CHEMBL5214990, “Novel Aryl Alkamidazole Derivatives as Multifunctional Antifungal Inhibitors: Design, Synthesis, and Biological Evaluation” (J Med Chem, 2022).
Calls of active or inactive are those of the source. The rule behind the calls is not given here.

Columns and labels:
Candida albicans [1] = assay: Induction of morphological changes in Candida albicans ATCC SC5314 assessed as reduction in fungal cell thickness measured after 48 to 72 hrs by transmission electron microscopy; assay type: functional, organism-based; conditions: time 48-72 hrs
Candida albicans [2] = assay: Induction of morphological changes in Candida albicans ATCC SC5314 assessed as fungal cells with irregular shrunken characteristics measured after 48 to 72 hrs by transmission electron microscopy; assay type: functional, organism-based; conditions: time 48-72 hrs
Candida albicans [3] = assay: Induction of morphological changes in Candida albicans ATCC SC5314 assessed as fungal cells with edema, cavitation, nuclear enrichment, accumulation of low density granular materials measured after 48 to 72 hrs by transmission electron microscopy; assay type: functional, organism-based; conditions: time 48-72 hrs
Candida albicans [4] = assay: Induction of morphological changes in Candida albicans ATCC SC5314 assessed as disintegration of fungal cell membrane and cell wall measured after 96 hrs by transmission electron microscopy; assay type: functional, organism-based
Candida albicans [5] = assay: Induction of morphological changes in Candida albicans ATCC SC5314 assessed as rupturing of marginal regions measured after 96 hrs by transmission electron microscopy; assay type: functional, organism-based
Candida albicans [6] = assay: Induction of morphological changes in Candida albicans ATCC SC5314 assessed as exudation of fungal cell contents to the external region measured after 96 hrs by transmission electron microscopy; assay type: functional, organism-based
[7] = Toxicity in mouse infected with Candida albicans assessed as morphological changes in spleen at 20 mg/kg, ip administered on days 2,4,6,8,10,12 and measured on day 14 by hematoxyin-eosin staining based analysis; assay type: organism-based; conditions: in vivo, 312 h, time 13 day
[8] = Toxicity in mouse infected with Candida albicans assessed as morphological changes in heart at 20 mg/kg, ip administered on days 2,4,6,8,10,12 and measured on day 14 by hematoxyin-eosin staining based analysis; assay type: organism-based; conditions: in vivo, 312 h, time 13 day
Mus musculus = assay: Immunomodulatory activity in mouse infected with Candida albicans assessed as increase in expression intensity of CD8+ T cells in spleen at 20 mg/kg, ip administered on days 2,4,6,8,10,12 and measured on day 14 by immunohistochemical staining analysis relative to fluconazole; assay type: functional, T-cell; conditions: time 13 day
Candida albicans [9] = assay: Increase in intracellular ROS level in Candida albicans assessed as fold increase in fluorescence intensity measured after 12 hrs by fluorescence microscopic analysis relative to control; assay type: functional
Cryptococcus neoformans = assay: Increase in intracellular ROS level in Cryptococcus neoformans assessed as fold increase in fluorescence intensity measured after 12 hrs by fluorescence microscopic analysis relative to control; assay type: functional

Row | SMILES | Activity (Candida albicans [1]) | Activity (Candida albicans [2]) | Activity (Candida albicans [3]) | Activity (Candida albicans [4]) | Activity (Candida albicans [5]) | Activity (Candida albicans [6]) | Activity [7] | Activity [8] | fold change (FC) (Mus musculus) | Activity (Candida albicans [9]) | Activity (Cryptococcus neoformans)
1 | C[C@H](C(=O)N(C)CC(O)(Cn1ccnc1)c1ccc(Cl)cc1Cl)c1cccc(C(=O)c2ccccc2)c1 (some centres undefined) | Active | Active | Active | Active | Active | Active | Non-Toxic | Non-Toxic | 2.12 |  | 
2 | OC(Cn1cncn1)(Cn1cncn1)c1ccc(F)cc1F [FLUCONAZOLE] |  |  |  |  |  |  |  |  |  | Active | Active
3 | C[C@H](C(=O)N(C)CC(O)(Cn1ccnc1)c1ccc(Cl)cc1)c1ccc(-c2ccccc2)c(F)c1 (some centres undefined) |  |  |  |  |  |  | Non-Toxic | Non-Toxic | 2.12 |  | 
